Activity calls are given as the source filed them.
Columns and labels:
Neuromedin-K receptor [1] = target: T1, Neuromedin-K receptor (Homo sapiens, UniProt P29371); experiment: Displacement of [125I]neurokinin B from cloned human NK3 receptor expressed in CHO cells; format: cell-based
T1 sequence (P29371 whole entry): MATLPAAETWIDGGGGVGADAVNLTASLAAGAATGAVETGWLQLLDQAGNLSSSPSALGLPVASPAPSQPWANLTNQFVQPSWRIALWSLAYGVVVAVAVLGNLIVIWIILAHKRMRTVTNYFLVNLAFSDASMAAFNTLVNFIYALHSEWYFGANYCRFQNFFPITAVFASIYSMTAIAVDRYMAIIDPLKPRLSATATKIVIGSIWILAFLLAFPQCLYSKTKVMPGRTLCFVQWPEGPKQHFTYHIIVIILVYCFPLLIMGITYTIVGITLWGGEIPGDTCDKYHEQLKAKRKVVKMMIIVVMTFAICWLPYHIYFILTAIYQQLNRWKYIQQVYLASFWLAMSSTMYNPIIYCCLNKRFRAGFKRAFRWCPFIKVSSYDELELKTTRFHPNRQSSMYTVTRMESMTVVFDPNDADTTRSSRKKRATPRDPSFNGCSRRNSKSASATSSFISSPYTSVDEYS

PXR (NR1I2) = target: T2, PXR (NR1I2) (Homo sapiens, UniProt O75469); experiment: Increase in human PXR activation expressed in CHO cells relative to rifampicin; format: cell-based; conditions: CHO cells expressing human PXR, read-out: Activity
T2 sequence (O75469 whole entry): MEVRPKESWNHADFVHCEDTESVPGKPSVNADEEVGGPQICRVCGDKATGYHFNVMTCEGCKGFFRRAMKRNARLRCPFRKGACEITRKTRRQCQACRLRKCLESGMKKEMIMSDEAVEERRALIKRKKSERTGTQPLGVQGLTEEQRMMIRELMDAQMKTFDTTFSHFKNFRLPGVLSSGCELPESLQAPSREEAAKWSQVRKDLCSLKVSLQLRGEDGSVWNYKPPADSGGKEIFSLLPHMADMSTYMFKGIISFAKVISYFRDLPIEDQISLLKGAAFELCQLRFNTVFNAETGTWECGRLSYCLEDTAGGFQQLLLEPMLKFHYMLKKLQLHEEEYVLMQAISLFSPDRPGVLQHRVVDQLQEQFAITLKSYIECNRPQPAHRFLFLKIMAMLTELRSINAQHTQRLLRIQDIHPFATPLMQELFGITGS

Substance-P receptor = Substance-P receptor (Homo sapiens, UniProt P25103); experiment: Inhibition of human NK1 receptor
Neuromedin-K receptor [2] = target: T3, Neuromedin-K receptor (Rattus norvegicus, UniProt P16177); experiment: Binding affinity to rat NK3 receptor
T3 sequence (P16177 whole entry): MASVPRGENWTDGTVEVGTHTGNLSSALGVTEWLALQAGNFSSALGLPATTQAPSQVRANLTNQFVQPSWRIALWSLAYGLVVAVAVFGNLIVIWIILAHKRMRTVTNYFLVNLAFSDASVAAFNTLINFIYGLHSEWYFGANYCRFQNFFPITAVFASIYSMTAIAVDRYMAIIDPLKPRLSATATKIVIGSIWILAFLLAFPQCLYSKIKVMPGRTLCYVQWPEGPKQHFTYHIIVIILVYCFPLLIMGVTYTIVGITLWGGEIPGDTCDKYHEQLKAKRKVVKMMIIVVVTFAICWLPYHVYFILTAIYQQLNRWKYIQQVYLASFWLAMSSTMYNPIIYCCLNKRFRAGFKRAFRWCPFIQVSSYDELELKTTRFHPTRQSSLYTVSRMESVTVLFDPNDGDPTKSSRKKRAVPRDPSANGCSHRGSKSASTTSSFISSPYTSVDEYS

[3] = Metabolic stability in rat liver microsomes after 15 mins; format: ADME, Microsome; conditions: read-out: Stability
[4] = target: T4, Neuromedin-K receptor (Homo sapiens) (UniProt P29371); experiment: Activity at human NK3 receptor assessed as inhibition of eledoisin-induced inositol phosphate generation in CHO cells; format: functional, cell-based
T4 sequence (whole entry): T1 sequence (P29371 whole entry)

Gerbil, jird [5] = experiment: Plasma concentration in gerbil at 30 mg/kg, po; format: ADME, organism-based; set-up: dose 30 mg/kg, route oral; conditions: meriones, in vivo
Cytochrome P450 2D6 = Cytochrome P450 2D6 (Homo sapiens, UniProt P10635); experiment: Inhibition of CYP2D6 in human liver microsomes; format: ADME, Microsome
Cytochrome P450 3A4 = Cytochrome P450 3A4 (Homo sapiens, UniProt P08684); experiment: Inhibition of CYP3A4 in human liver microsomes; format: ADME, Microsome
Substance-K receptor = target: T5, Substance-K receptor (Homo sapiens, UniProt P21452); experiment: Inhibition of human NK2 receptor
T5 sequence (P21452 whole entry): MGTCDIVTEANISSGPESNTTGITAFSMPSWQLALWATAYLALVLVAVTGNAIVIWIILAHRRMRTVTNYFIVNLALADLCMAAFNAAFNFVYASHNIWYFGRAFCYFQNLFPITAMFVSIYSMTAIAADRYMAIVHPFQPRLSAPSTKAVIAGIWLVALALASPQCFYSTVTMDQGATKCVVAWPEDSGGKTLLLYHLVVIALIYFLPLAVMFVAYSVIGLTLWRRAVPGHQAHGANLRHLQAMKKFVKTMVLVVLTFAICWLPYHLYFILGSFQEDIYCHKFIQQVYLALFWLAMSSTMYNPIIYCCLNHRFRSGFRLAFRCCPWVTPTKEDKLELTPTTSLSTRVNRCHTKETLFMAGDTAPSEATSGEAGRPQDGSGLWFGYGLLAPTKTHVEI

Salmonella typhimurium [6] = experiment: Effect on Salmonella Typhimurium mutation in presence of liver microsomal enzymes by Ames assay; format: functional, organism-based; conditions: Salmonella enterica subsp. enterica serovar Typhimurium
[7] = Oral bioavailability in rat; format: ADME, organism-based; conditions: in vivo
Salmonella typhimurium [8] = experiment: Effect on Salmonella Typhimurium mutation in absence of liver microsomal enzymes by Ames assay; format: functional, organism-based; conditions: Salmonella enterica subsp. enterica serovar Typhimurium
Hepatocyte = experiment: Induction of CYP3A4 in human hepatocytes at 20 uM relative to rifampicin; format: functional, cell-based
Escherichia coli [9] = experiment: Effect on Escherichia coli mutation in presence of liver microsomal enzymes by Ames assay; format: functional, organism-based
Cytochrome P450 2C9 = Cytochrome P450 2C9 (Homo sapiens, UniProt P11712); experiment: Inhibition of CYP2C9 in human liver microsomes; format: ADME, Microsome
[10] = Half life in dog; format: ADME, organism-based, Canis lupus familiaris; conditions: in vivo
[11] = target: T4, Neuromedin-K receptor (Homo sapiens); experiment: Activity at human NK3 receptor assessed as stimulation of inositol phosphate generation in CHO cells up to 10 uM; format: functional, cell-based
[12] = Half life in rat; format: ADME, organism-based; conditions: in vivo
Escherichia coli [13] = experiment: Effect on Escherichia coli mutation in absence of liver microsomal enzymes by Ames assay; format: functional, organism-based
[14] = target: Voltage-gated inwardly rectifying potassium channel KCNH2 (Homo sapiens, UniProt Q12809); experiment: Inhibition of hERG; format: toxicity
[15] = Oral bioavailability in dog; format: ADME, organism-based, Canis lupus familiaris; conditions: in vivo
[16] = target: T4, Neuromedin-K receptor (Homo sapiens); experiment: Activity at human NK3 receptor assessed as stimulation of calcium mobilization in CHO cells up to 10 uM; format: functional, cell-based
Gerbil, jird [17] = experiment: Plasma concentration in gerbil at 10 mg/kg, po; format: ADME, organism-based; set-up: dose 10 mg/kg, route oral; conditions: meriones, in vivo
Gerbil, jird [18] = experiment: Plasma concentration in gerbil at 75 mg/kg, po; format: ADME, organism-based; set-up: dose 75 mg/kg, route oral; conditions: meriones, in vivo
[19] = target: T4, Neuromedin-K receptor (Homo sapiens); experiment: Displacement of [125I]neurokinin B from cloned human NK3 receptor expressed in CHO cells at 1 uM; format: cell-based; conditions: filed as antagonist

Chain of Cytochrome P450 2C9 (P11712 whole entry): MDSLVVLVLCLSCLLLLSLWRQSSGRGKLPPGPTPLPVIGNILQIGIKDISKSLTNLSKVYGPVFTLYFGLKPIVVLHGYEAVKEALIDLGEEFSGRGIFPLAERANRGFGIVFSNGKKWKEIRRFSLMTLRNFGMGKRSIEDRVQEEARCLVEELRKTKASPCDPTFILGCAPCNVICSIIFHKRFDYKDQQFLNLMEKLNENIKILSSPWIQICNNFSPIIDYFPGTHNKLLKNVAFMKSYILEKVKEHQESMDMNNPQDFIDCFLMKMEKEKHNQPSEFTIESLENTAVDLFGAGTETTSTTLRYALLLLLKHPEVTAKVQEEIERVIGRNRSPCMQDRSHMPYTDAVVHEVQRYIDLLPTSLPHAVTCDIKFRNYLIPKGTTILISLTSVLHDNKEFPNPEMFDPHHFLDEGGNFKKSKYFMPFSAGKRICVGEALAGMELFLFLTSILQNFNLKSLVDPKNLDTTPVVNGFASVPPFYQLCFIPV
Chain of Substance-P receptor (P25103 whole entry): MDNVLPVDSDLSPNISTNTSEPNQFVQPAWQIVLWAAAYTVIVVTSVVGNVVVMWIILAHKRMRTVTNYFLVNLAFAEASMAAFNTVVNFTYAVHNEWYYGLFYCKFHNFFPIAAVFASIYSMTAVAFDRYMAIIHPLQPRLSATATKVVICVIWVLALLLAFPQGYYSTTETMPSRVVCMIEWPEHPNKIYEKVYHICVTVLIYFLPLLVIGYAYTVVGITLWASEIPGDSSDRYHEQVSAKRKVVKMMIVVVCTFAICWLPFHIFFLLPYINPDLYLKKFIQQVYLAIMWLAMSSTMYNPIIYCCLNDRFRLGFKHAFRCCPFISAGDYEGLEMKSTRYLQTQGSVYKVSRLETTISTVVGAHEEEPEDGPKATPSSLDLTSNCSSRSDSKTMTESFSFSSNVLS
Chain of Cytochrome P450 3A4 (P08684 whole entry): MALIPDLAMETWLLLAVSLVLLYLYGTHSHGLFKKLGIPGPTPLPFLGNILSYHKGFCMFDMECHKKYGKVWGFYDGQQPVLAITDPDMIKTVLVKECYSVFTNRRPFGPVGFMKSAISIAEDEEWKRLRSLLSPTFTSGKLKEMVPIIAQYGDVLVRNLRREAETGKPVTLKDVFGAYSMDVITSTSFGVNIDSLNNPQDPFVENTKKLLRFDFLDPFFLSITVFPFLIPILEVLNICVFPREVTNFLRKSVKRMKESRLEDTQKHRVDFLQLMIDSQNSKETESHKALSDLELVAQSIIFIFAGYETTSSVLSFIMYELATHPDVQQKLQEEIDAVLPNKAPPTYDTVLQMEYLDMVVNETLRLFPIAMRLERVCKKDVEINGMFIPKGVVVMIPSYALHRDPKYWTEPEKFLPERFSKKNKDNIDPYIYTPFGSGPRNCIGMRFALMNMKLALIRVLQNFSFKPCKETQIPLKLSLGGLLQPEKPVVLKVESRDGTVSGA
Chain of Cytochrome P450 2D6 (P10635 whole entry): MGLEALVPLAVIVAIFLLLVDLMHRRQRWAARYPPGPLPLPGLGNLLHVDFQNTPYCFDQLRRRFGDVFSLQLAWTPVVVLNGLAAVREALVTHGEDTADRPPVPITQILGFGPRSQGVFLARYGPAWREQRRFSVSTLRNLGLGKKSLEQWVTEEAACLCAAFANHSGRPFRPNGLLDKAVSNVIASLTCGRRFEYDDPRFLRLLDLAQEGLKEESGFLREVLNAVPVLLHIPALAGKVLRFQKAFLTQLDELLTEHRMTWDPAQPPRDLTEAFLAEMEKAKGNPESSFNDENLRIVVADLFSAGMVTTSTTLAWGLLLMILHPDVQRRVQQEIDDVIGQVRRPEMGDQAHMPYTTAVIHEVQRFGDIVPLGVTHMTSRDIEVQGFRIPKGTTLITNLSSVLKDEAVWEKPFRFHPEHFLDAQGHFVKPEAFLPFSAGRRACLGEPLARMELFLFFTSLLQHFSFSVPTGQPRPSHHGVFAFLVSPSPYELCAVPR
Chain of Voltage-gated inwardly rectifying potassium channel KCNH2 (Q12809 whole entry): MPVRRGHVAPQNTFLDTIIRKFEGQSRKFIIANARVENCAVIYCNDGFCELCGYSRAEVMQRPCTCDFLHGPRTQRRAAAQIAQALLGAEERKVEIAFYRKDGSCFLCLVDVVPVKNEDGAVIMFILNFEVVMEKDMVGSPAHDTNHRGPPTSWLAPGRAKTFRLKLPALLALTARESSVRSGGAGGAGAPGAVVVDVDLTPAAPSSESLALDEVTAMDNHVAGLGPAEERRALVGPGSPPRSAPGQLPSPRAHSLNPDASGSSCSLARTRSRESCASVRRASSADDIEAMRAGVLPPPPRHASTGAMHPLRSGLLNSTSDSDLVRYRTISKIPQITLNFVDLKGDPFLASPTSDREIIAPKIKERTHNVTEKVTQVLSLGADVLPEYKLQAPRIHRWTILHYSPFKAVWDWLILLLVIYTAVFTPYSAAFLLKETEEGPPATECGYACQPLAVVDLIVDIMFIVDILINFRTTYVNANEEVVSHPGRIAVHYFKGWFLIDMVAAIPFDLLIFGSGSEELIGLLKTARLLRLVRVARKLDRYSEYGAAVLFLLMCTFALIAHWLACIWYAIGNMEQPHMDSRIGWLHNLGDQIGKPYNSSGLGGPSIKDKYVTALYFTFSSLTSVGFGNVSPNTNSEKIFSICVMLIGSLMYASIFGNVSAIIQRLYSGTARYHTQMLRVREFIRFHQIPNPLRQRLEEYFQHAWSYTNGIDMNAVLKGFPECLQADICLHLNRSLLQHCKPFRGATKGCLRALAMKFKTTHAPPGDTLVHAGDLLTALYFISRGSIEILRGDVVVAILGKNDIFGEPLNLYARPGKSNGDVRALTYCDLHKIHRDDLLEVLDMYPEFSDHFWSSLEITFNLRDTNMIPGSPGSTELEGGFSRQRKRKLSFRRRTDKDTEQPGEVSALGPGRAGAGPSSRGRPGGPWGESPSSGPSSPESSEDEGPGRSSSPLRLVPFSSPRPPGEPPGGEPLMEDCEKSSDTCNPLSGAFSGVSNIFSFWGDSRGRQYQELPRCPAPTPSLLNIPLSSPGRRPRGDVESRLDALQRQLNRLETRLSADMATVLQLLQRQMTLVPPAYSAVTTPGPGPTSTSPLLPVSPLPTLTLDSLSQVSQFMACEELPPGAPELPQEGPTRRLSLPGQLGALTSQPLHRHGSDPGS

COC(=O)N(NC(=O)c1c(OC)c(-c2ccc(F)cc2)nc2ccccc12)c1ccccc1
IC50 (Neuromedin-K receptor [1]): 24 nM (antagonist) | Emax (PXR (NR1I2)): 54%

CCC(=O)N(NC(=O)c1c(OC)c(-c2ccccc2)nc2ccccc12)c1ccccc1
IC50 (Neuromedin-K receptor [1]): 22 nM (antagonist)

COc1c(-c2ccccc2)nc2ccccc2c1C(=O)NN(C)c1ccccc1
IC50 (Neuromedin-K receptor [1]): 57 nM (antagonist)

COC(=O)N(NC(=O)c1c(OC)c(-c2ccccc2)nc2cc(F)ccc12)c1ccccc1
IC50 (Neuromedin-K receptor [1]): 28 nM (antagonist) | Emax (PXR (NR1I2)): 62%

COC(=O)N(NC(=O)c1c(OC)c(-c2ccccc2)nc2ccccc12)c1ccccc1
IC50 (Substance-P receptor): > 1000 nM | IC50 (Neuromedin-K receptor [2]): 66 nM (antagonist) | remaining at 0.25 h [3]: 21% | Activity [4]: Dose-dependent effect | concentration (Gerbil, jird [5]): 950 nM | Emax (PXR (NR1I2)): 49% | IC50 (Cytochrome P450 2D6): > 30000 nM | IC50 (Cytochrome P450 3A4): 12000 nM | IC50 (Substance-K receptor): > 1000 nM | Activity (Salmonella typhimurium [6]): inactive | bioavailability [7]: 43% | Activity (Salmonella typhimurium [8]): inactive | Activity (Hepatocyte): Active | Activity (Escherichia coli [9]): inactive | IC50 (Cytochrome P450 2C9): > 30000 nM | half-life [10]: 3 h | Activity [11]: inactive | half-life [12]: 4.6 h | Activity (Escherichia coli [13]): inactive | Ki [14]: > 8000 nM | bioavailability [15]: 36% | Activity [16]: inactive

COC(=O)N(NC(=O)c1c(OC)c(-c2ccccc2)nc2c(F)cccc12)c1ccccc1
IC50 (Neuromedin-K receptor [1]): 4.1 nM (antagonist) | Emax (PXR (NR1I2)): 75%

COC(=O)N(NC(=O)c1c(N)c(-c2ccccc2)nc2ccccc12)c1ccccc1
IC50 (Neuromedin-K receptor [1]): 10 nM (antagonist) | Emax (PXR (NR1I2)): 64%

COC(=O)N(NC(=O)c1c(OC)c(-c2ccccc2)nc2c(Br)cccc12)c1ccccc1
IC50 (Neuromedin-K receptor [1]): 430 nM (antagonist) | Emax (PXR (NR1I2)): 88%

COC(=O)N(NC(=O)c1c(C)c(-c2ccccc2)nc2ccccc12)c1ccccc1
IC50 (Neuromedin-K receptor [1]): 8.4 nM (antagonist) | Emax (PXR (NR1I2)): 56%

COc1c(-c2ccccc2)nc2ccccc2c1C(=O)NN(C(C)=O)c1ccccc1
IC50 (Neuromedin-K receptor [1]): 210 nM (antagonist)

COC(=O)N(NC(=O)c1c(OC)c(-c2ccccc2)nc2cccc(F)c12)c1ccccc1
IC50 (Neuromedin-K receptor [1]): 11 nM (antagonist) | Emax (PXR (NR1I2)): 55%

COC(=O)N(NC(=O)c1cc(-c2ccccc2)nc2ccccc12)c1ccccc1
IC50 (Neuromedin-K receptor [1]): 91 nM (antagonist) | Emax (PXR (NR1I2)): 44%

COC(=O)N(NC(=O)c1c(OC)c(-c2cccc(F)c2)nc2ccccc12)c1ccccc1
IC50 (Neuromedin-K receptor [1]): 22 nM (antagonist) | Emax (PXR (NR1I2)): 69%

COc1c(-c2ccccc2)nc2ccccc2c1C(=O)NN(c1ccccc1)c1ccccc1
IC50 (Neuromedin-K receptor [1]): 0.85 nM (antagonist) | remaining at 0.25 h [3]: 65% | Emax (PXR (NR1I2)): 68% | concentration (Gerbil, jird [17]): 40 nM

CC[C@H](NC(=O)c1c(O)c(-c2ccccc2)nc2ccccc12)c1ccccc1 [TALNETANT]
Emax (PXR (NR1I2)): 62% | concentration (Gerbil, jird [18]): 3800 nM

COC(=O)N(NC(=O)c1c(OC)c(-c2ccccc2)nc2c(C#N)cccc12)c1ccccc1
inhibition [19]: 35% | Emax (PXR (NR1I2)): 87%

CCN(NC(=O)c1c(OC)c(-c2ccccc2)nc2ccccc12)c1ccccc1
IC50 (Neuromedin-K receptor [1]): 16 nM (antagonist)

COC(=O)N(NC(=O)c1c(OC)c(-c2ccccc2)nc2c(C(F)(F)F)cccc12)c1ccccc1
inhibition [19]: 27% | Emax (PXR (NR1I2)): 87%

COC(=O)N(NC(=O)c1c(OC)c(-c2ccccc2)nc2ccccc12)c1ccc(F)cc1
IC50 (Neuromedin-K receptor [1]): 33 nM (antagonist)

COC(=O)N(NC(=O)c1c(OC)c(-c2ccccc2)nc2ccccc12)c1cccc(F)c1
IC50 (Neuromedin-K receptor [1]): 7.4 nM (antagonist) | Emax (PXR (NR1I2)): 54%

COc1c(-c2ccccc2)nc2ccccc2c1C(=O)NN(C(=O)OCC(C)C)c1ccccc1
IC50 (Neuromedin-K receptor [1]): 190 nM (antagonist)

COc1c(-c2ccccc2)nc2ccccc2c1C(=O)NNc1ccccc1
IC50 (Neuromedin-K receptor [1]): 32 nM (antagonist)

COC(=O)N(NC(=O)c1c(OC)c(-c2ccccc2)nc2ccccc12)c1ccccc1F
IC50 (Neuromedin-K receptor [1]): 53 nM (antagonist)

COC(=O)N(NC(=O)c1c(OC)c(-c2ccccc2F)nc2ccccc12)c1ccccc1
IC50 (Neuromedin-K receptor [1]): 110 nM (antagonist)

CCOC(=O)N(NC(=O)c1c(OC)c(-c2ccccc2)nc2ccccc12)c1ccccc1
IC50 (Neuromedin-K receptor [1]): 60 nM (antagonist)

COC(=O)N(NC(=O)c1c(OC)c(-c2ccccc2)nc2ccc(F)cc12)c1ccccc1
IC50 (Neuromedin-K receptor [1]): 38 nM (antagonist) | Emax (PXR (NR1I2)): 62%

COC(=O)N(NC(=O)c1c(O)c(-c2ccccc2)nc2ccccc12)c1ccccc1
IC50 (Neuromedin-K receptor [1]): 39 nM (antagonist)

Source: ChEMBL document CHEMBL1139722, “N',2-diphenylquinoline-4-carbohydrazide based NK3 receptor antagonists” (Bioorg Med Chem Lett, 2006)
